Data as given in patent publication US8846752B2, “Isoflavone fatty acid ester derivatives, preparation method and pharmaceutical uses thereof” (China Pharmaceutical University, priority 2010, dated 2014).

Experiments:
[1] = cited from earlier work
High Fat Diet Rats = test: Losing weight and depressing blood fat in high-fat diet SD rats; assay type: in vivo; conditions: intragastric once a day for a month, compounds 25 mg/kg, sibutramine 1.0 mg/kg, mean ± SD, n = 10
Procedure: 1. Activity Determination of Losing Weight and Depressing Blood Fat of SD Rats
The experiment refers to the methods in Experimental Methodology of Pharmacology compiled by Xu Shuyun et al, People's Medical Publishing House 2002: 1189-1201, which is slightly modified.
SD rates (weight 80 g-100 g, male, clean grade) are randomly divided into the following groups according to the weight:
Blank control group (normal diet group); model control group (high-fat diet group); sibutramine, 1.0 mg/kg; Group I-1, 25 mg/kg; Group I-2, 25 mg/kg; Group I-3, 25 mg/kg; Group II-1, 25 mg/kg; Group II-2, 25 mg/kg; Group II-3, 25 mg/kg.
Except the blank control group, the other groups are fed with high-fat diet for two months. In the third month, all groups are required for intragastric administration and the blank control group and model control group are given appropriate volume of excipients once a day for a consecutive month. After the administration, exsanguinate and kill the rats, take femoral arterial blood and separate the plasma, and then measure the parameters according to the unified operating procedures in the kit instructions. Remove the fat around abdominal cavity and reproductive organs, weigh its wet weight and determine the body weight.

[2] = tested on: high fat and high sugar model ICR mice; test: Losing weight, depressing blood fat and regulating blood sugar balance in high fat and high sugar ICR mice; assay type: in vivo; design: Serum insulin concentration INS: unit not given here; conditions: n = 10, x ± s; for Celiac total fat / Epididymal fat / MDA (serum oxidative damage indicator) / Mesenteric fat / Perirenal fat / SOD (serum oxidative damage indicator) / Serum insulin concentration INS / Subcutaneous fat / FFA / HDL-C / LDL-C / TC / TG: 50 mg/kg intragastric for 30 days; for Body weight 1 week after / Body weight 2 weeks after / Body weight 3 weeks after / Body weight before administration: high fat and high sugar model; for Body weight 1 week after / Body weight 2 weeks after / Body weight 3 weeks after: 50 mg/kg intragastric daily; for Body weight before administration: baseline before 50 mg/kg intragastric; for FFA / HDL-C / LDL-C / TC / TG: serum
Description: 2. Activity Determination of Losing Weight, Depressing Blood Fat and Regulating Blood Sugar Balance of ICR Mice
The experiment refers to the methods of Raquel Ferrer-Lorente et al (European Journal of Pharmacology, 2005, 513: 243-248), which are slightly modified.
Take 40 ICR mice (male, weight 13-15 g) and randomly divide them into two large groups according to their weight, a normal diet group (n=10) and a high fat and high sugar model group (n=30); give normal diet to the normal diet group and conduct subcutaneous injection of physiological saline each day; give high-fat and high-sugar diet to the high fat and high sugar model group and conduct subcutaneous injection of insulin (0.5 U/kg) each day. The food is not restricted. Measure the food regularly each day, weigh the weight once a week and feed 7 consecutive weeks.
7 weeks after modeling, the normal diet group is unchanged and the high fat and high sugar model group is divided into model control group (n=10), I-1 administration group (n=10) and I-2 administration group (n=10). The feed of each group is unchanged. The administration group is given corresponding compounds with the dose of 50 mg/kg and the blank group is given the equal volume of blank solvent. Conduct intragastric administration on each group for consecutive 30 days. Weigh 12 h after fasting after last administration, take the eyeballs for blood, prepare serum, determine the blood fat (triglyceride TG, free fatty acid FFA, total cholesterol TC, low density lipoprotein cholesterol LDL-C and high density lipoprotein cholesterol HDL-C) content and blood insulin content and detect the oxidative damage indicators in the blood (malondialdehyde MAD and superoxide dismutase SOD). Take off the cervical vertebrae to kill the rats, separate the perirenal, testicular, mesenteric and inguinal (subcutaneous) white adipose tissue, wash clean with cold physiological saline and dry with filter paper, and then weigh.

PPARγ2-mRNA = test: RT-PCR of PPARγ2-mRNA expression in 3T3-L1 cells; assay type: cell-based; conditions: during differentiation of preadipocyte 3T3-L1; GAPDH internal reference; FIG. 4
Procedure: 4.1.3 Reverse Transcription
Polymerase chain reaction (RT-PCR) experiment Extract the total RNA of fully differentiated 3T3-L1 cells to be reversely transcribed into cDNA. The primers are designed as follows:
• The length of the target product is 567 bp.
• The length of the target product is 424 bp.
PCR amplification conditions: initial denaturation at 94 for 5 min, then denaturize at 94 for 30 s, anneal at 57 for 40 s, and extend at 72 for 50 s, a total of 30 cycles. Finally extend at 72 for 10 min. Then conduct electrophoresis analysis with 1.5% agarose gel. GAPDH is used as the internal reference to alleviate the error between different samples. Compare the optical density of objective band with the optical density of amplified GAPDH band for analysis.

3T3-L1 cells [3] = test: Cell proliferation determination with MTT method; assay type: cell-based; conditions: 25, 50, 100 and 200 μmol/L, 2 d; P<0.05 vs blank group; FIG. 1
Procedure: 4.1.1 Cell Proliferation Determination Experiment with MTT Method
Inoculate 3T3-L1 cells in 96-hole cell culture plate. After 2 d of conventional culture, replace with DMEM culture solutions with different concentrations (25, 50, 100 and 200 μmol/L) of Series I compounds. The control group is the culture solution containing 0.1% (V/V) ethanol (96%). 3 complex holes are set for each concentration in each group, processing 2 d. Discard the culture solution in the holes and add 20 μL MTT solution in each hole and culture at 37 for 4 h. Then discard the solution in the hole, add 100 μL DMSO solution in each hole, shake thoroughly and measure the absorbance (A) immediately in the enzyme-linked immunosorbent assay. The wavelength is measured to be 570 nm.

KM mice = test: Acute toxicity test of KM mice; assay type: in vivo
Procedure: 3. Acute Toxicity Test of KM Mice
3.1 I-1 Acute Toxicity Test of Intragastric Administration (ig) for Mice
3.2 I-1 Acute Toxicity Test of Subcutaneous Injection (sc) for Mice
After sc I-1 2000 mg/kg of mice under the conditions of maximum administration capacity and maximum administration concentration, no mice die and the mice toxic symptoms express as decrease in spontaneous activities and often creeping lying without moving. After about 48 h, mice activities begin to increase. Compared with the control group, the weight gain in subsequent observation period is slower.

3T3-L1 cells [4] = test: Oil red staining colorimetric experiment (preadipocyte differentiation); assay type: cell-based; conditions: 8th day of differentiation, 2nd day of administration; FIG. 2 and FIG. 3
Procedure: 4.1.2 Oil Red Staining Colorimetric Experiment
4.1.2.1 Culture 3T3-L1 cells in conventional medium and replace with differential medium I (DMEM culture solution containing 15% FBS, 0.4 mmol/L IBMX, 10 mg/L insulin and 1 μmol/L DEX) 2 d after the cells are completely merged (0 d of differentiation) for culture for 2 d. In the second day of differentiation, replace with differential medium II (DMEM culture solution containing 15% FBS and 10 mg/L insulin) to culture cells. In the 6th day of differentiation and later, replace with corresponding DMEM culture solution containing series I compounds. The control group is the complete culture solution without drugs.
4.1.2.2. Oil Red O Staining
In the 8th day of differentiation, discard the culture solution in the holes, wash with PBS for twice and add the solution containing 10% methanal to fix cells for 2 h. Wash with PBS for twice and stain with 0.5% oil red for 2 h. Wash with PBS for three times, dry at 37, add isopropanol, extract for 10 min and measure the absorbance value of the extract liquor at 492 nm.

CCCCCCCC/C=C\CCCCCCCC(=O)Oc1ccc2c(c1)CC[C@@H]1[C@@H]2CC[C@]2(C)C(=O)CC[C@@H]12 [OE, Oleoyl-estrone]
Half-life ([1]; intravenous injection): 4.17 min
Fraction absorbed in estrone water-soluble ester ([1]; oral administration): 12%
Fraction absorbed in free estrone form ([1]; oral administration): 17%

CC(C)CC(N(C)C)C1(c2ccc(Cl)cc2)CCC1 (centres unmarked) [Sibutramine, reference compound]
Fat index (High Fat Diet Rats): 4.3 ± 1.7 g/100 g
Free fatty acid FFA (High Fat Diet Rats): 609.6 ± 138.3 µmol/L
Total cholesterol TC (High Fat Diet Rats): 1.32 ± 0.29 mmol/L
Triglyceride TG (High Fat Diet Rats): 0.97 ± 0.31 mmol/L
Weight after administration (High Fat Diet Rats): 301 ± 41 g

CCCCCCCC/C=C\CCCCCCCC(=O)Oc1ccc2c(=O)c(-c3ccc(OC)cc3)coc2c1 [I-1, 4′-methoxy-7-O-oleoyl daizeol]
Celiac total fat [2]: 0.595 ± 0.172 g
Epididymal fat [2]: 0.382 ± 0.230 g
MDA (serum oxidative damage indicator) [2]: 0.810 ± 0.162 nmol/L
Mesenteric fat [2]: 0.135 ± 0.047 g
Perirenal fat [2]: 0.078 ± 0.050 g
SOD (serum oxidative damage indicator) [2]: 382.3 ± 200.9 U/ml
Serum insulin concentration INS [2]: 20.26 ± 2.69
Subcutaneous fat [2]: 0.136 ± 0.065 g
Body weight 1 week after [2]: 39.1 ± 5.2 g
Body weight 2 weeks after [2]: 33.8 ± 3.7 g
Body weight 3 weeks after [2]: 31.5 ± 2.0 g
Body weight before administration [2]: 41.8 ± 5.7 g
FFA [2]: 0.55 ± 0.14 mmol/L
HDL-C [2]: 1.70 ± 0.53 mmol/L
LDL-C [2]: 1.068 ± 0.636 mmol/L
TC [2]: 2.79 ± 0.39 mmol/L
TG [2]: 0.97 ± 0.21 mmol/L
PPARγ2-mRNA expression quantity (PPARγ2-mRNA): increased
Proliferation of preadipocyte 3T3-L1 (MTT, OD value) (3T3-L1 cells [3]): significant inhibition action
Fat index (High Fat Diet Rats): 5.0 ± 1.6 g/100 g
Free fatty acid FFA (High Fat Diet Rats): 606.7 ± 144.7 µmol/L
Total cholesterol TC (High Fat Diet Rats): 1.31 ± 0.27 mmol/L
Triglyceride TG (High Fat Diet Rats): 0.91 ± 0.22 mmol/L
Weight after administration (High Fat Diet Rats): 309 ± 36 g
LD50 (KM mice; intragastric administration (ig)): 2163.8 mg/kg
Mortality (KM mice; subcutaneous injection (sc) 2000 mg/kg, maximum administration capacity and concentration): no mice die
Adipose differentiation of 3T3-L1 cells (oil red stained lipid droplets) (3T3-L1 cells [4]): lipid droplets are significantly decreased

CCCCCCCCCCCCCCCCCC(=O)Oc1ccc(-c2coc3cc(OC)ccc3c2=O)cc1 [II-3, 7-methoxy-4′-O-stearoyl daizeol]
Fat index (High Fat Diet Rats): 6.0 ± 2.1 g/100 g
Free fatty acid FFA (High Fat Diet Rats): 738.1 ± 196.0 µmol/L
Total cholesterol TC (High Fat Diet Rats): 1.71 ± 0.34 mmol/L
Triglyceride TG (High Fat Diet Rats): 1.35 ± 0.35 mmol/L
Weight after administration (High Fat Diet Rats): 352 ± 47 g

CCCCCCCCCCCCCCCC(=O)Oc1ccc2c(=O)c(-c3ccc(OC)cc3)coc2c1 [I-4, 4′-methoxy-7-O-palmityl daizeol]
PPARγ2-mRNA expression quantity (PPARγ2-mRNA): significantly decreased

CCCCCCCCCCCCCCCCCC(=O)Oc1ccc2c(=O)c(-c3ccc(OC)cc3)coc2c1 [I-3, 4′-methoxy-7-O-stearoyl daizeol]
PPARγ2-mRNA expression quantity (PPARγ2-mRNA): significantly decreased
Fat index (High Fat Diet Rats): 5.4 ± 1.2 g/100 g
Free fatty acid FFA (High Fat Diet Rats): 730.2 ± 186.0 µmol/L
Total cholesterol TC (High Fat Diet Rats): 1.57 ± 0.30 mmol/L
Triglyceride TG (High Fat Diet Rats): 1.19 ± 0.30 mmol/L
Weight after administration (High Fat Diet Rats): 320 ± 34 g

CCCCCCCC/C=C\CCCCCCCC(=O)Oc1ccc(-c2coc3cc(OC)ccc3c2=O)cc1 [II-1, 7-methoxy-4′-O-oleoyl daizeol]
Fat index (High Fat Diet Rats): 5.6 ± 1.6 g/100 g
Free fatty acid FFA (High Fat Diet Rats): 696.3 ± 205.4 µmol/L
Total cholesterol TC (High Fat Diet Rats): 1.65 ± 0.25 mmol/L
Triglyceride TG (High Fat Diet Rats): 1.01 ± 0.24 mmol/L
Weight after administration (High Fat Diet Rats): 328 ± 32 g

CCCCC/C=C\C/C=C\CCCCCCCC(=O)Oc1ccc(-c2coc3cc(OC)ccc3c2=O)cc1 [II-2, 7-methoxy-4′-O-linoleoyl daizeol]
Fat index (High Fat Diet Rats): 5.1 ± 1.3 g/100 g
Free fatty acid FFA (High Fat Diet Rats): 658.8 ± 201.2 µmol/L
Total cholesterol TC (High Fat Diet Rats): 1.67 ± 0.23 mmol/L
Triglyceride TG (High Fat Diet Rats): 1.03 ± 0.21 mmol/L
Weight after administration (High Fat Diet Rats): 318 ± 28 g

CCCCC/C=C\C/C=C\CCCCCCCC(=O)Oc1ccc2c(=O)c(-c3ccc(OC)cc3)coc2c1 [I-2, 4′-methoxy-7-O-linoleoyl daizeol]
Celiac total fat [2]: 0.329 ± 0.403 g
Epididymal fat [2]: 0.212 ± 0.239 g
MDA (serum oxidative damage indicator) [2]: 1.288 ± 0.145 nmol/L
Mesenteric fat [2]: 0.058 ± 0.101 g
Perirenal fat [2]: 0.059 ± 0.057 g
SOD (serum oxidative damage indicator) [2]: 424.1 ± 192.8 U/ml
Serum insulin concentration INS [2]: 22.32 ± 6.39
Subcutaneous fat [2]: 0.099 ± 0.071 g
Body weight 1 week after [2]: 39.1 ± 4.1 g
Body weight 2 weeks after [2]: 32.9 ± 5.7 g
Body weight 3 weeks after [2]: 29.5 ± 2.3 g
Body weight before administration [2]: 42.0 ± 4.4 g
FFA [2]: 0.43 ± 0.04 mmol/L
HDL-C [2]: 1.56 ± 0.29 mmol/L
LDL-C [2]: 0.880 ± 0.655 mmol/L
TC [2]: 3.18 ± 0.46 mmol/L
TG [2]: 0.71 ± 0.22 mmol/L
PPARγ2-mRNA expression quantity (PPARγ2-mRNA): increased
Fat index (High Fat Diet Rats): 4.3 ± 1.5 g/100 g
Free fatty acid FFA (High Fat Diet Rats): 603.8 ± 163.5 µmol/L
Total cholesterol TC (High Fat Diet Rats): 1.28 ± 0.26 mmol/L
Triglyceride TG (High Fat Diet Rats): 0.99 ± 0.21 mmol/L
Weight after administration (High Fat Diet Rats): 307 ± 32 g
